biological target: T1, human IKK-2 (rhIKK-2 homodimer) (Homo sapiens, UniProt O14920); experiment: IKK-2 Resin Enzyme Assay (Human IKK-2 Enzyme Assay); assay type: biochemical; settings: human IKK-2, resin enzyme assay; read-out: IC50 (μM) hIKK-2
T1 construct: FLAG (DYKDDDDKD) (C); made in house; host or cells: insect cells (baculovirus, pFastBac)
T1 sequence (O14920 1-756): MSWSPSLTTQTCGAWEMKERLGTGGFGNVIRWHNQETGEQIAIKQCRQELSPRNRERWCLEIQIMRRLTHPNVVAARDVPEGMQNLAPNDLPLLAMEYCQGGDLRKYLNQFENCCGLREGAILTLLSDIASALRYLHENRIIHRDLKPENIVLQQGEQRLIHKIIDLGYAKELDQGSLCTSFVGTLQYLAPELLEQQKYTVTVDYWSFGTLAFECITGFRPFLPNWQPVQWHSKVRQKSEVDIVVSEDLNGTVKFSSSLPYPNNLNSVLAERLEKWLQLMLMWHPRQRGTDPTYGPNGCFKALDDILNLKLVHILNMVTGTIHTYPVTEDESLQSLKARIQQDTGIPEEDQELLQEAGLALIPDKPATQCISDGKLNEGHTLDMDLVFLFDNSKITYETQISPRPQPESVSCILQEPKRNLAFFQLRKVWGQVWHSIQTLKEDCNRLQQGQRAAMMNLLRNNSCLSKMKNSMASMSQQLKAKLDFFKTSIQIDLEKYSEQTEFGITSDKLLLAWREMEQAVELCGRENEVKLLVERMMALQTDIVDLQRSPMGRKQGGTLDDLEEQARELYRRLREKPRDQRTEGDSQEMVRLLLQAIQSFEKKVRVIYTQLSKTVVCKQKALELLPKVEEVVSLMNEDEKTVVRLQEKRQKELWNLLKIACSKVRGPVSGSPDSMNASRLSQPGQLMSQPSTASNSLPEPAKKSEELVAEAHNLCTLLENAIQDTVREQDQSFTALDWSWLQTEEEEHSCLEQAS
Summary of the method: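 C-terminally FLAG-tagged human IKK-2 homodimer, baculovirus-expressed in insect cells and anti-FLAG purified. Reaction mix: 5 μM biotinylated IκBα peptide (Ser32/Ser36 region), 1 μM ATP with [γ-33P]ATP, 2 mM MgCl2, 2 mM MnCl2, 10 mM NaF, 1 mM DTT, 25 mM HEPES pH 7.6. Incubated 30 min at 25 °C; IC50 derived.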

Row | SMILES | IC50 [µM]
1 | COc1cccc(CNC(=O)c2ccc(-c3ccc(-n4cc(NC(N)=O)c(C(N)=O)n4)cc3)cc2F)c1 [Example 153, 4-[(aminocarbonyl)amino]-1-(3′-fluoro-4′-{[(3-methoxybenzyl)amino]carbonyl}-1,1′-biphenyl-4-yl)-1H-pyrazole-3-carboxamide] | 0.32
2 | NC(=O)Nc1cn(-c2ccc(-c3ccc(O)cc3)cc2)nc1C(N)=O [Example 36, 4-[(aminocarbonyl)amino]-1-(4′-hydroxy-1,1′-biphenyl-4-yl)-1H-pyrazole-3-carboxamide] | 1.63
3 | CNC(=O)c1cccc(-c2cccc(-n3cc(NC(N)=O)c(C(N)=O)n3)c2)c1 [Example 83, 4-[(aminocarbonyl)amino]-1-{3′-[(methylamino)carbonyl]-1,1′-biphenyl-3-yl}-1H-pyrazole-3-carboxamide] | 1.29
4 | NC(=O)Nc1cn(-c2ccc(Sc3ccccc3F)cc2F)nc1C(N)=O [Example 211, 1-(1-(4-(2-fluorophenylthio)-2-fluorophenyl)-3-carbamoyl-1H-pyrazol-4-yl)urea] | 10.5
5 | NC(=O)Nc1nn(-c2ccc(-c3ccc(Cl)c(Cl)c3)cc2)cc1C(N)=O [Example 136] | > 20
6 | NC(=O)Nc1nn(-c2ccc(-c3ccc(F)c(F)c3)cc2)cc1C(N)=O [Example 114] | 3.19
7 | NC(=O)Nc1cn(-c2cccc(Br)c2)nc1C(N)=O [Example 20, 4-[(aminocarbonyl)amino]-1-(3-bromophenyl)-1H-pyrazole-3-carboxamide] | 0.61
8 | NC(=O)Nc1cn(-c2cccc(-c3ccc[nH]3)c2)nc1C(N)=O [Example 68] | 0.55
9 | NC(=O)Nc1cn(-c2cccc(-c3ccc(C(=O)NCC(=O)O)cc3)c2)nc1C(N)=O [Example 85, N-[(3′-{3-(aminocarbonyl)-4-[(aminocarbonyl)amino]-1H-pyrazol-1-yl}-1,1′-biphenyl-4-yl)carbonyl]glycine] | 0.58
10 | COc1cccc(-c2ccc(-n3cc(NC(N)=O)c(C(N)=O)n3)cc2)c1 [Example 107, 4-[(aminocarbonyl)amino]-1-(3′-methoxy-1,1′-biphenyl-4-yl)-1H-pyrazole-3-carboxamide] | 0.651
11 | CCOC(=O)c1cccc(-c2ccc(-n3cc(NC(N)=O)c(C(N)=O)n3)cc2)c1 [Example 144, ethyl 4′-{3-(aminocarbonyl)-4-[(aminocarbonyl)amino]-1H-pyrazol-1-yl}-1,1′-biphenyl-3-carboxylate] | 5.05
12 | NC(=O)Nc1cn(-c2ccc3c(c2)OCO3)nc1C(N)=O [Example 213, 4-[(aminocarbonyl)amino]-1-(1,3-benzodioxol-5-yl)-1H-pyrazole-3-carboxamide] | 3.91
13 | NC(=O)Nc1cn(-c2cccc(-c3ccccc3OCc3ccccc3)c2)nc1C(N)=O [Example 86, 4-[(aminocarbonyl)amino]-1-[2′-(benzyloxy)-1,1′-biphenyl-3-yl]-1H-pyrazole-3-carboxamide] | 5.91
14 | NC(=O)Nc1cn(-c2ccc(-c3cccc(OCc4ccncc4)c3)cc2)nc1C(N)=O [Example 171, 4-[(aminocarbonyl)amino]-1-[3′-(pyridin-4-ylmethoxy)-1,1′-biphenyl-4-yl]-1H-pyrazole-3-carboxamide] | 6.84
15 | N#CCOc1ccccc1-c1ccc(-n2cc(NC(N)=O)c(C(N)=O)n2)cc1Cl [Example 224, 4-[(aminocarbonyl)amino]-1-[2-chloro-2′-(cyanomethoxy)-1,1′-biphenyl-4-yl]-1H-pyrazole-3-carboxamide] | 0.327
16 | NC(=O)Nc1nn(-c2ccc(-c3cc(Cl)cc(Cl)c3)cc2)cc1C(N)=O [Example 137] | > 20
17 | CCN(CC)C(=O)c1ccc(-c2ccc(-n3cc(NC(N)=O)c(C(N)=O)n3)cc2)cc1 [Example 143, 4-[(aminocarbonyl)amino]-1-{4′-[(diethylamino)carbonyl]-1,1′-biphenyl-4-yl}-1H-pyrazole-3-carboxamide] | 3.31
18 | NC(=O)Nc1nn(-c2ccc(-c3ccc(F)cc3F)cc2)cc1C(N)=O [Example 113] | 0.355
19 | CNC(=O)c1ccc(-c2cccc(-n3cc(NC(N)=O)c(C(N)=O)n3)c2)cc1 [Example 74, 4-[(aminocarbonyl)amino]-1-{4′-[(methylamino)carbonyl]-1,1′-biphenyl-3-yl}-1H-pyrazole-3-carboxamide] | 0.94
20 | NC(=O)Nc1cn(-c2ccc(-c3ccc(C(N)=O)cc3)cc2)nc1C(N)=O [Example 149, 4-[(aminocarbonyl)amino]-1-[4′-(aminocarbonyl)-1,1′-biphenyl-4-yl]-1H-pyrazole-3-carboxamide] | 0.05

Continued, values first:

Row | IC50 [µM] | SMILES
21 | 0.662 | NC(=O)Nc1cn(-c2ccc(I)cc2Cl)nc1C(N)=O [Example 251, 4-[(aminocarbonyl)amino]-1-(2-chloro-4-iodophenyl)-1H-pyrazole-3-carboxamide]
22 | 0.578 | NC(=O)Nc1cn(-c2ccc([S+]([O-])c3ccccc3O)cc2)nc1C(N)=O (stereo not shown) [Example 285, 1-(1-(4-(2-hydroxyphenylsulfinyl)phenyl)-3-carbamoyl-1H-pyrazol-4-yl)urea]
23 | > 20 | NC(=O)Nc1cn(-c2cccc(-c3cccc4ccccc34)c2)nc1C(N)=O [Example 360, 4-[(aminocarbonyl)amino]-1-[3-(1-naphthyl)phenyl]-1H-pyrazole-3-carboxamide]
24 | 0.161 | Cc1cc(-n2cc(NC(N)=O)c(C(N)=O)n2)ccc1-c1cccc(O)c1 [Example 239, 1-(3′-hydroxy-2-methyl-biphenyl-4-yl)-4-ureido-1H-pyrazole-3-carboxylic acid amide]
25 | 11.6 | COc1ccc(Cl)cc1-c1cccc(-n2cc(NC(N)=O)c(C(N)=O)n2)c1 [Example 365, 4-[(aminocarbonyl)amino]-1-(5′-chloro-2′-methoxy-1,1′-biphenyl-3-yl)-1H-pyrazole-3-carboxamide]
26 | > 20 | NC(=O)Nc1cn(-c2cccc(-c3ccccc3)c2)nc1C(N)=O [Example 339, 4-[(aminocarbonyl)amino]-1-(1,1′-biphenyl-3-yl)-1H-pyrazole-3-carboxamide]
27 | 6.15 | CCOc1ccc(-c2cccc(-n3cc(NC(N)=O)c(C(N)=O)n3)c2)cc1 [Example 355, 4-[(aminocarbonyl)amino]-1-(4′-ethoxy-1,1′-biphenyl-3-yl)-1H-pyrazole-3-carboxamide]
28 | 1.01 | CC(=O)COc1cccc(-c2ccc(-n3cc(NC(N)=O)c(C(N)=O)n3)cc2)c1 [Example 253, 4-[(aminocarbonyl)amino]-1-[3′-(2-oxopropoxy)-1,1′-biphenyl-4-yl]-1H-pyrazole-3-carboxamide]
29 | 10.6 | CCc1cc(Br)ccc1-n1cc(NC(N)=O)c(C(N)=O)n1 [Example 281, 4-[(aminocarbonyl)amino]-1-(4-bromo-2-ethylphenyl)-1H-pyrazole-3-carboxamide]
30 | 4.01 | NC(=O)Nc1cn(-c2ccc(-c3cc(F)ccc3OCC(=O)O)cc2)nc1C(N)=O [Example 259, [(4′-{3-(aminocarbonyl)-4-[(aminocarbonyl)amino]-1H-pyrazol-1-yl}-5-fluoro-1,1′-biphenyl-2-yl)oxy]acetic acid]
31 | 0.656 | Cc1cc(-n2cc(NC(N)=O)c(C(N)=O)n2)ccc1-c1ccc(F)cc1OCC(N)=O [Example 296, 1-(2′-carbamoylmethoxy-4′-fluoro-2-methyl-biphenyl-4-yl)-4-ureido-1H-pyrazole-3-carboxylic acid amide]
